For assay [1], the system named is BV-2. The assay can be described thus: Antiinflammatory activity in OGD/R-induced mouse BV-2 cells assessed as promotion of M2-phenotype polarization at 0.1 to 10 uM measured as upregulation of CD206+/IBA-1+ expression after 24 hrs by flow cytometry assay. The assay is classed as functional, cell-based. The note with it: dose 0.1-10 µM.
Assay [2] deals with Mus musculus. The assay can be described thus: Antiinflammatory activity in LPS-induced neuroinflammatory model of SPF male mouse assessed as IL1-beta level at 4 mg/kg, iv administered once 6 hrs after LPS administration and measured by ELISA. The assay is classed as functional. (An ELISA detects its analyte on a solid surface through an enzyme-linked reagent.)
Assay [3] concerns BV-2. The assay can be described thus: Antiinflammatory activity in LPS-stimulated mouse BV-2 cells assessed as inhibition of IL-6 release at 10 uM and measured after 8 hrs by ELISA. The assay is classed as functional.
In assay [4] the test system is BV-2. As to the kind of experiment: Antiinflammatory activity in LPS-stimulated mouse BV-2 cells assessed as inhibition of IL-1beta release at 10 uM and measured after 8 hrs by ELISA. The assay is classed as functional, cell-based.
Assay [5] deals with BV-2. The assay can be described thus: Antiinflammatory activity in LPS-stimulated mouse BV-2 cells assessed as inhibition of NO production at 10 uM and measured after 24 hrs by Griess method. The assay is classed as functional, cell-based.
Assay [6] concerns Rattus norvegicus. The assay can be described thus: Neuroprotective activity in SPF Sprague-Dawley rat model of middle cerebral artery occlusion-induced ischemia-reperfusion injury assessed as decrease in cerebral infarction area at 20 mg/kg, iv administered once a day by TTC staining based assay. Format: functional. On the set-up: scale not given: the % may be the effect or the level left.

The subject of assay [7] is Mus musculus. As to the kind of experiment: Antiinflammatory activity in LPS-induced neuroinflammatory model of SPF male mouse assessed as TNF-alpha level at 4 mg/kg, iv administered once 6 hrs after LPS administration and measured by ELISA. Format: functional.
The subject of assay [8] is Mus musculus. The assay can be described thus: Antiinflammatory activity in LPS-induced neuroinflammatory model of SPF male mouse assessed as IL1-beta level at 20 mg/kg, iv administered once 6 hrs after LPS administration and measured by ELISA. The assay is classed as functional.
Assay [9] relates to BV-2. The assay can be described thus: Antiinflammatory activity in OGD/R-induced mouse BV-2 cells assessed as inhibition of M1-phenotype polarization at 0.1 to 10 uM measured as downregulation of CD16/32+/IBA-1+ expression after 24 hrs by flow cytometry assay. The note with it: dose 0.1-10 µM. Format: functional, cell-based. For orientation: A flow cytometer gives signals particle by particle.

Assay [10] relates to Rattus norvegicus. As to the kind of experiment: Neuroprotective activity in SPF Sprague-Dawley rat model of middle cerebral artery occlusion-induced ischemia-reperfusion injury assessed as inhibition of cerebral infarction at 20 mg/kg, iv administered once a day by TTC staining based assay. The assay is classed as functional.
The subject of assay [11] is BV-2. The assay can be described thus: Neuroprotective activity against in OGD/R-induced mouse BV-2 cell injury assessed as cell viability at 0.1 uM measured after 24 hrs by MTT assay. The assay is classed as functional. The note with it: read-out: Activity. On the technique in general: Formazan colour is commonly taken as a measure of viable cells.
Assay [12] relates to BV-2. As to the kind of experiment: Neuroprotective activity against in OGD/R-induced mouse BV-2 cell injury assessed as cell viability at 10 uM measured after 24 hrs by MTT assay. Format: functional. The note with it: read-out: Activity.
Assay [13] concerns BV-2. The assay can be described thus: Antiinflammatory activity in LPS-stimulated mouse BV-2 cells assessed as inhibition of PGE2 release at 10 uM and measured after 8 hrs by ELISA. The assay is classed as functional.
Assay [14] relates to BV-2. The assay can be described thus: Neuroprotective activity against in OGD/R-induced mouse BV-2 cell injury assessed as cell viability at 1 uM measured after 24 hrs by MTT assay. The assay is classed as functional. The conditions noted are these: read-out: Activity.
Assay [15] is described as follows: Inhibition of soybean 5-LOX. Details: species or system Glycine max.
In assay [16] the test system is Rattus norvegicus. The assay can be described thus: Neuroprotective activity in SPF Sprague-Dawley rat model of middle cerebral artery occlusion-induced ischemia-reperfusion injury assessed as decrease in neurological deficit score at 20 mg/kg, iv administered once a day. Format: functional, organism-based.
Assay [17] concerns BV-2. As to the kind of experiment: Antiinflammatory activity in LPS-stimulated mouse BV-2 cells assessed as inhibition of TNF-alpha release at 10 uM and measured after 8 hrs by ELISA. The assay is classed as functional, cell-based.
The test system of assay [18] is Mus musculus. The assay can be described thus: Antiinflammatory activity in LPS-induced neuroinflammatory model of SPF male mouse assessed as TNF-alpha level at 20 mg/kg, iv administered once 6 hrs after LPS administration and measured by ELISA. The assay is classed as functional.
Assay [19] deals with Prostaglandin G/H synthase 1 (Homo sapiens, UniProt P23219). The assay can be described thus: Inhibition of COX-1 (unknown origin) using arachidonic acid as substrate and measured by fluorometric assay.
Prostaglandin G/H synthase 1, sequence (P23219 whole entry): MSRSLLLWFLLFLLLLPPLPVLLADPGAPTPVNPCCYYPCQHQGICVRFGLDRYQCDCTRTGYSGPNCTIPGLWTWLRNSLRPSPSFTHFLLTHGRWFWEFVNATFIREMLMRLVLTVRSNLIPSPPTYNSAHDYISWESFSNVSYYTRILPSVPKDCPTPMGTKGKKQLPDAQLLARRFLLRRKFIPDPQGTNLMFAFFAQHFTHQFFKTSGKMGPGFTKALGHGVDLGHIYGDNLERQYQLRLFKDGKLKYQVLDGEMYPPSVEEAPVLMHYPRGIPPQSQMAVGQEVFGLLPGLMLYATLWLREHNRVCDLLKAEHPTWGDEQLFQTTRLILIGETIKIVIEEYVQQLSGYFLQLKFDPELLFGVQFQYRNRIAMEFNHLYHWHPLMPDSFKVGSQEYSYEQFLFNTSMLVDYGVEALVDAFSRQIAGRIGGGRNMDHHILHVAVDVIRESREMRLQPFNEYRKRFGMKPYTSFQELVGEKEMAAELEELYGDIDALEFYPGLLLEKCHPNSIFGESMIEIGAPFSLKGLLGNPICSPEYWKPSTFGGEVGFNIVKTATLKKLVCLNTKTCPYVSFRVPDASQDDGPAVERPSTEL

Molecules are shown by their SMILES. pIC50: −log10 of the molar value. The source made the active and inactive calls. The calls are words filed in the database; no cut-off is given here.

The term inhibition denotes how much of the control response was suppressed. Broadly, the inhibition in vivo is the percentage by which the read-out fell short of the control. Broadly, the pIC50 is the negative decadic logarithm of the IC50, by convention in mol/L.

On to `O=C(c1cc2ccccc2n1Cc1ccc(F)cc1)N1CCN(c2ncccn2)CC1`, for which the result in assay [1], in assay [9] and in assay [16] was Active. Besides, the Activity is 69.83 pg/g in assay [2]; 14.27% in assay [6]; 118.69 pg/g in assay [7]; 48.23 pg/g in assay [8]; 87.48 pg/g in [18]. Moreover, the inhibition at 10 µM in assay [3] was 45.7%; in assay [4] it was 44.3%; in assay [5], 9.38%; in assay [13], 47.2%; in [17], 47.9%. The inhibition in vivo at 20 mg/kg in assay [10] stood at 38.3%. Further, the viability at 0.1 µM in assay [11] was found to be 72.2%. Further, the viability at 10 µM in [12] is 89.7%. In assay [14], the viability at 1 µM amounted to 83.8%. In addition, the figures for the pIC50 in assay [15] and in [19] were 7.38 and 5.79, respectively.

Source of the values: ChEMBL document CHEMBL5108000, “Design and synthesis of novel indole and indazole-piperazine pyrimidine derivatives with anti-inflammatory and neuroprotective activities for ischemic stroke treatment” (Eur J Med Chem, 2022).
